Where “and” joins values, the source holds several entries; their conditions need not be identical. Identical values can stand only once. Inconclusive results and toxic doses are left out.

The test concerns L1210 leukemia ip in BDF1 mice, survival T/C. Put plainly: NCI In Vivo Anticancer Drug Screen. Data for tumor model L1210 Leukemia (intraperitoneal) in B6D2F1 (BDF1) mice. The conditions noted are these: endpoint: mean survival time, higher = longer survival. A digest of the protocol:
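Mice bearing the transplanted tumor received compound or vehicle. Survival of the treated group was divided by that of the vehicle-treated control group to give the ratio.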

Setting [1] is: dose: 100.0 mg/kg/injection, schedule: Q01DX001 (ip), vehicle: Klucel (hydroxypropylcellulose) (HPC).
The mark [2] stands for this setting: dose: 100.0 mg/kg/injection, schedule: Q04DX003 (ip), vehicle: Klucel (hydroxypropylcellulose) (HPC).
Setting [3] is: dose: 200.0 mg/kg/injection, schedule: Q01DX001 (ip), vehicle: Klucel (hydroxypropylcellulose) (HPC).
The mark [4] stands for this setting: dose: 200.0 mg/kg/injection, schedule: Q04DX003 (ip), vehicle: Klucel (hydroxypropylcellulose) (HPC).
The mark [5] stands for this setting: dose: 400.0 mg/kg/injection, schedule: Q01DX001 (ip), vehicle: Klucel (hydroxypropylcellulose) (HPC).
[6] abbreviates: dose: 400.0 mg/kg/injection, schedule: Q04DX003 (ip), vehicle: Klucel (hydroxypropylcellulose) (HPC).
The mark [7] stands for this setting: dose: 25.0 mg/kg/injection, schedule: Q01DX009 (ip), vehicle: saline.
Setting [8] is: dose: 50.0 mg/kg/injection, schedule: Q01DX001 (ip), vehicle: saline.
[9] abbreviates: dose: 100.0 mg/kg/injection, schedule: Q01DX001 (ip), vehicle: saline.
The mark [10] stands for this setting: dose: 100.0 mg/kg/injection, schedule: Q01DX009 (ip), vehicle: Klucel (hydroxypropylcellulose) (HPC).
[11] abbreviates: dose: 200.0 mg/kg/injection, schedule: Q01DX009 (ip), vehicle: Klucel (hydroxypropylcellulose) (HPC).
Where [12] appears, read: dose: 400.0 mg/kg/injection, schedule: Q01DX009 (ip), vehicle: Klucel (hydroxypropylcellulose) (HPC).
Where [13] appears, read: dose: 25.0 mg/kg/injection, schedule: Q04DX003 (ip), vehicle: saline.
[14] abbreviates: dose: 50.0 mg/kg/injection, schedule: Q04DX003 (ip), vehicle: saline.
Setting [15] is: dose: 100.0 mg/kg/injection, schedule: Q04DX003 (ip), vehicle: saline.
Setting [16] is: dose: 200.0 mg/kg/injection, schedule: Q04DX003 (ip), vehicle: saline.
The mark [17] stands for this setting: dose: 400.0 mg/kg/injection, schedule: Q04DX003 (ip), vehicle: saline.
The mark [18] stands for this setting: dose: 200.0 mg/kg/injection, schedule: Q01DX001 (ip), vehicle: saline.
[19] abbreviates: dose: 400.0 mg/kg/injection, schedule: Q01DX001 (ip), vehicle: saline.

Regarding `COC(=O)C1C(c2ccc(-c3ccccc3)cc2)N1C1CCCCC1` (centres undefined), the T/C under setting [1] is 96 % of control; the T/C under setting [2] is 104 % of control; the T/C under setting [3] is 95 % of control; the T/C under setting [4] was 107 % of control; the T/C under setting [5] is 93 % of control; the T/C under setting [6] is 98 % of control.

For `NC(CCl)=NCCCCN=C(N)CCl`, the T/C is, setting by setting: (dose: 12.5 mg/kg/injection, schedule: Q01DX009 (ip), vehicle: saline) 108 % of control; (dose: 12.5 mg/kg/injection, schedule: Q04DX002 (ip), vehicle: saline) 100 % of control; under setting [7], 101 % of control; (dose: 25.0 mg/kg/injection, schedule: Q04DX002 (ip), vehicle: saline) 124 % of control.

Consider `NCCCCc1nc(N)nc(N)c1-c1ccc(Cl)cc1`, for which the T/C is, setting by setting: (dose: 25.0 mg/kg/injection, schedule: Q01DX001 (ip), vehicle: saline) 104 % of control; under setting [8], 96 % of control; under setting [9], 102 % of control.

On to `CCCCCCCCCCCCCCCC(=O)ONC(N)=O`, for which the T/C by setting is: (dose: 100.0 mg/kg/injection, schedule: Q01DX001 (ip), vehicle: saline with Tween-80) 100 % of control; (dose: 200.0 mg/kg/injection, schedule: Q01DX001 (ip), vehicle: saline with Tween-80) 96 % of control; (dose: 400.0 mg/kg/injection, schedule: Q01DX001 (ip), vehicle: saline with Tween-80) 91 % of control.

As to `Cc1c2cnccc2c(C)c2c1c1ccccc1n2CCNCc1ccccc1`, the T/C is, setting by setting: (dose: 50.0 mg/kg/injection, schedule: Q04DX003 (ip), vehicle: saline with Tween-80) 87 % of control; (dose: 100.0 mg/kg/injection, schedule: Q04DX003 (ip), vehicle: saline with Tween-80) 94 % of control; (dose: 200.0 mg/kg/injection, schedule: Q04DX003 (ip), vehicle: saline with Tween-80) 103 % of control.

`Cc1ccc(CNc2ccc(Br)cc2)cc1`: the T/C by setting is: under setting [10], 96 % of control; under setting [2], 101 % of control; under setting [11], 99 % of control; under setting [4], 102 % of control; under setting [12], 94 % of control; under setting [6], 101 % of control.

`COc1cc(C(=O)Nc2ccc(N(C)C)cc2)cc(OC)c1OC`: the T/C by setting is: under setting [7], 103 % of control; under setting [13], 108 % of control; (dose: 50.0 mg/kg/injection, schedule: Q01DX009 (ip), vehicle: saline) 108 % of control; under setting [14], 97 % of control; (dose: 100.0 mg/kg/injection, schedule: Q01DX009 (ip), vehicle: saline) 97 % of control; under setting [15], 100 % of control. Besides, the T/C was 104 % of control (dose: 200.0 mg/kg/injection, schedule: Q01DX009 (ip), vehicle: saline); 103 % of control under setting [16]; 100 % of control under setting [17].

With `Clc1ccc(/C(=[C](\[Hg]/[C](=C(\c2ccccc2)c2ccc(Cl)cc2)c2ccccc2)c2ccccc2)c2ccccc2)cc1`, the T/C reads like this: under setting [10], 96 % of control; under setting [2], 101 % of control; under setting [11], 102 % of control; under setting [4], 107 % of control; under setting [12], 96 % of control; under setting [6], 102 % of control.

On to `c1ccc(C(=NN(CCN(N=C(c2ccccc2)c2ccccc2)c2ccccc2)c2ccccc2)c2ccccc2)cc1`, for which the T/C reads like this: under setting [8], 101 % of control; under setting [9], 92 % of control; under setting [18], 86 % of control; under setting [19], 92 % of control.

With `Cn1c(=O)c2c(nc(OCC3CCCO3)n2C)n(C)c1=O` (centres undefined), the T/C under setting [9] was 106 % of control and the T/C under setting [18] is 100 % of control.

Turning to `CC1CN1P(=O)(N1CC1C)N1CC1C` (centres undefined), the T/C runs as follows: (dose: 13.3 mg/kg/injection, schedule: Q01DX009 (ip), vehicle: saline) 124 % of control; (dose: 19.0 mg/kg/injection, schedule: Q01DX009 (ip), vehicle: saline) 124 % of control; (dose: 66.0 mg/kg/injection, schedule: Q01DX001 (ip), vehicle: saline) 163 % of control; (dose: 99.0 mg/kg/injection, schedule: Q01DX009 (ip), vehicle: saline) 88 % of control; (dose: 150.0 mg/kg/injection, schedule: Q01DX001 (ip), vehicle: saline) 159 % of control.

For `OCC(O)C(O)C(O)C(O)C(c1ccc(F)cc1)c1ccc(F)cc1` (centres undefined), the T/C is 98 % of control under setting [8]; 106 % of control and 102 % of control under setting [9]; 101 % of control under setting [18]; 93 % of control under setting [19].

For `O=C(O)c1ccc(-c2ccc(O)cc2)cc1`, the T/C was 98 % of control under setting [10], 101 % of control under setting [11] and 102 % of control under setting [12].

For the compound `O=C(N/N=C\c1cccc([N+](=O)[O-])c1)N/N=C/c1cccc([N+](=O)[O-])c1`, the T/C runs as follows: (dose: 6.25 mg/kg/injection, schedule: Q04DX003 (ip), vehicle: saline with Tween-80) 92 % of control; (dose: 12.5 mg/kg/injection, schedule: Q04DX003 (ip), vehicle: saline with Tween-80) 97 % of control; (dose: 25.0 mg/kg/injection, schedule: Q04DX003 (ip), vehicle: saline with Tween-80) 87 % of control.

For the compound `O=C(O)C(CO)c1ccc(F)cc1` (centres undefined), the T/C is, setting by setting: (dose: 100.0 mg/kg/injection, schedule: Q01DX001 (ip), vehicle: carboxymethylcellulose (CMC)) 108 % of control; (dose: 200.0 mg/kg/injection, schedule: Q01DX001 (ip), vehicle: carboxymethylcellulose (CMC)) 106 % of control; (dose: 400.0 mg/kg/injection, schedule: Q01DX001 (ip), vehicle: carboxymethylcellulose (CMC)) 108 % of control.

In the case of `COC(=O)c1ccccc1NC(=O)c1ccccc1[N+](=O)[O-]`, the T/C is 101 % of control (dose: 75.0 mg/kg/injection, schedule: Q04DX003 (ip), vehicle: Klucel (hydroxypropylcellulose) (HPC)); 95 % of control under setting [1]; 98 % of control (dose: 150.0 mg/kg/injection, schedule: Q04DX003 (ip), vehicle: Klucel (hydroxypropylcellulose) (HPC)); 100 % of control under setting [3]; 97 % of control (dose: 300.0 mg/kg/injection, schedule: Q04DX003 (ip), vehicle: Klucel (hydroxypropylcellulose) (HPC)); 95 % of control under setting [5].

For the compound `Cn1cnc([N+](=O)[O-])c1Sc1c[nH]c(=O)[nH]c1=O`, the T/C reads like this: under setting [13], 107 % of control; under setting [14], 96 % of control; under setting [15], 104 % of control; under setting [16], 93 % of control; under setting [17], 94 % of control.

In the case of `CC1(C)N=C(N)N=C(N)N1c1cccc(OCCOc2cccc(NC(=O)CBr)c2)c1`, the T/C reads like this: (dose: 5.0 mg/kg/injection, schedule: Q01DX001 (ip), vehicle: saline) 98 % of control; (dose: 10.0 mg/kg/injection, schedule: Q01DX001 (ip), vehicle: saline) 102 % of control; (dose: 10.0 mg/kg/injection, schedule: Q01DX009 (ip), vehicle: other) 105 % of control; (dose: 20.0 mg/kg/injection, schedule: Q01DX001 (ip), vehicle: saline) 93 % of control; (dose: 20.0 mg/kg/injection, schedule: Q01DX009 (ip), vehicle: other) 98 % of control; (dose: 40.0 mg/kg/injection, schedule: Q01DX001 (ip), vehicle: saline) 96 % of control.

As for `O=C(CC(=O)c1cccc([N+](=O)[O-])c1)Nc1ccccc1Br`, the T/C was 94 % of control under setting [2], 91 % of control under setting [4] and 94 % of control under setting [6].

As to `CC1CCC2(NC1)OC1CC3C4CCC5CC(O)CCC5(C)C4CCC3(C)C1C2C` (centres undefined), the T/C runs as follows: (dose: 100.0 mg/kg/injection, schedule: Q01DX001 (ip), vehicle: other) 94 % of control; (dose: 200.0 mg/kg/injection, schedule: Q01DX001 (ip), vehicle: other) 91 % of control; (dose: 400.0 mg/kg/injection, schedule: Q01DX001 (ip), vehicle: other) 94 % of control.

Take `O=P(CCl)(Oc1ccc(Cl)cc1)Oc1ccc(Cl)cc1`: the T/C under setting [9] was 103 % of control and the T/C under setting [18] is 95 % of control.
